Assay results taken from PubChem BioAssay AID652053 (Broad Institute, 2013).

Tested on: Huh7 psiCHECK-miR122 Renilla luciferase reporter, 48 h
Assay: miR-122 inhibitors in Huh7 reporter cells, dose response, cell-based, Huh7 psiCHECK-miR122, Renilla luciferase, cherry-pick (AID 652053)

Structure (SMILES)	AC40
O=S(=O)(NCCOCC(F)(F)C(F)F)c1ccc2oc3ccccc3c2c1	15.3 µM
Cc1ccc(C(C)C)cc1S(=O)(=O)NCc1ccccn1	1.38 µM
COc1ccc(NS(=O)(=O)c2ccc3ccccc3c2)c2ncccc12	5.19 µM
CC(=O)Nc1ccc(S(=O)(=O)Nc2cccc(-c3nc4ccccc4o3)c2)cc1	6.93 µM
CCOC(=O)C1CCCCN1C(=O)c1cc2ccc(OC)cc2c2cc(OC)c(OC)cc12 (stereo not drawn)	4.65 µM
O=C(Nc1ccccc1O)c1ccc(NS(=O)(=O)c2cccc3cccnc23)cc1	14.8 µM
Cc1cc(C)c(S(=O)(=O)Nc2cccc(S(=O)(=O)N3CCOCC3)c2)c(C)c1	2.71 µM
C[C@@H]1CN([C@H](C)CO)C(=O)c2cccc(NC(=O)Nc3ccccc3)c2O[C@@H]1CN(C)Cc1ccc(C(=O)Nc2ccccc2N)cc1	20.5 µM
COc1ccc(OC)c(S(=O)(=O)NCc2ccccc2)c1	0.781 µM
C=CCN(CC=C)S(=O)(=O)c1ccc2nc(NC(=O)C(C)C)sc2c1	8.29 µM
COc1ccccc1S(=O)(=O)Nc1cccc(S(=O)(=O)N2CCCC2)c1	1.26 µM
O=S(=O)(NCCc1ccccc1)c1ccc(F)cc1Br	1.45 µM
COc1ccc(C(=O)N2C[C@@H]3[C@H](c4ccccc42)[C@H](CO)N3Cc2ccc3c(c2)OCO3)cc1	5.57 µM
CCCC(C)NS(=O)(=O)c1ccc(OC)c(C)c1 (stereo not drawn)	10 µM
O=C(Nc1ccccc1F)N1C[C@H]2[C@@H](c3ccccc31)[C@@H](CO)N2C(=O)c1ccc(F)cc1	1.25 µM
O=S(=O)(NCCc1ccc(F)cc1)c1cc(C(F)(F)F)ccc1Br	< 0.26 µM
Cc1ccc(CN2CCSc3ccc(C(=O)NCc4cccnc4)cc32)cc1	10.6 µM
COc1ccccc1NS(=O)(=O)c1cc(NC(=O)c2cccc(S(=O)(=O)N(C)C)c2)ccc1N1CCOCC1	0.776 µM
O=S(=O)(c1ccc(F)cc1)N1C[C@H]2[C@@H](c3ccccc31)[C@@H](CO)N2Cc1ccc2c(c1)OCO2	4.82 µM
Cc1ccc(S(=O)(=O)Nc2ccc3c(c2)C(=O)N([C@@H](C)CO)C[C@H](C)[C@H](CN(C)C(=O)Nc2ccc(F)cc2)OCCCC[C@@H](C)O3)cc1	1.86 µM
COc1ccc(-c2cc(C)no2)cc1S(=O)(=O)Nc1cccc(C)c1	0.83 µM
O=C(c1ccc(F)cc1)N1C[C@H]2[C@@H](c3ccccc31)[C@@H](CO)N2Cc1ccc2c(c1)OCO2	17.3 µM
CCCn1c(NC(=O)c2cccc(C)c2C)nc2ccccc21	16.2 µM
COc1ccc(OC)c(C2C3=C(COC3=O)Nc3cc4c(cc32)OCO4)c1 (stereo not drawn)	17.7 µM
CCOC(=O)N1CCN(S(=O)(=O)c2cc(OCC)ccc2OCC)CC1	4.56 µM
O=C(OCCN=C1NS(=O)(=O)c2ccccc21)c1ccccc1	9.59 µM

Structure (SMILES)	AC40
O=C(c1ccccc1F)N1C[C@H]2[C@@H](c3ccccc31)[C@@H](CO)N2C(=O)c1ccc(F)cc1	2.4 µM
O=S(=O)(/N=C(/Nc1ccc(Cl)c(S(=O)(=O)N2CCOCC2)c1)c1ccc(F)cc1)c1ccccc1	0.864 µM
O=S(=O)(NC1CCCCC1)c1ccc(-c2csnn2)s1	3.8 µM
Cc1ccc(C(=O)NCCSc2ccccc2)cc1S(=O)(=O)Nc1ccccc1	4.09 µM
CCOC(=O)c1ccc(NS(=O)(=O)c2cc(C)ccc2OC)cc1	8.03 µM
Cc1ccccc1NS(=O)(=O)c1cc(C(=O)N2CCc3ccccc3C2)ccc1C	20.4 µM
S=C(Nc1ccc(Cl)cc1Cl)NC1CCCCC1	3.4 µM
CC(NC(=S)Nc1ccc(Cl)cc1Cl)C(c1cccs1)N1CCCC1 (stereo not drawn)	23.8 µM
C[C@H](CO)N1C[C@H](C)[C@@H](CN(C)Cc2ccc(Cl)c(Cl)c2)Oc2c(NS(=O)(=O)c3ccccc3)cccc2C1=O	2.54 µM
CCOc1cc(C)c(S(=O)(=O)Nc2ccc(F)cc2)cc1C	0.908 µM
Cc1ccc(S(=O)(=O)N2CCC3(CC2)OCCN3S(=O)(=O)c2cccs2)cc1	3.63 µM
COc1ccc(C)cc1S(=O)(=O)NC1CCCCCC1	2.03 µM
C[C@@H]1CN([C@@H](C)CO)C(=O)c2cccc(NC(=O)c3ccc(-c4nccs4)cc3)c2O[C@@H]1CN(C)Cc1ccc(C(=O)Nc2ccccc2N)cc1	4.9 µM
CCc1c(C(=O)Nc2cc(C)cc(C)c2)[nH]c(C)c1C(C)=O	14.8 µM
COc1cccc(NS(=O)(=O)c2cc(C)sc2C)c1	1.43 µM
Cc1cc(S(=O)(=O)Nc2cccc(Cl)c2)c(C)s1	0.486 µM
Cc1ccc(C)c(S(=O)(=O)Nc2ccc(-n3cnnn3)cc2)c1	< 0.26 µM
Nc1ncc(Br)cc1S(=O)(=O)NCCc1ccccc1	0.647 µM
Cc1ccc(NS(=O)(=O)c2cc3c(cc2C)NC(=O)CO3)cc1	5.89 µM
CCOC(=O)c1cc(S(=O)(=O)NC2CCCCC2)cn1C	5.77 µM
CC(c1ccco1)N(C(=O)CSc1ccc(Br)cc1)c1ccccn1 (stereo not drawn)	14.4 µM
O=S(=O)(Nc1ccc(Cl)cc1)c1ccc2c(c1)CCO2	2.26 µM
Cc1cc(Cl)c(S(=O)(=O)Nc2ccc3c(c2)OCO3)cc1OCC(=O)NC1CCCCC1	5.8 µM
COc1cccc(C(=O)N2C[C@H]3[C@@H](c4ccccc42)[C@H](CO)N3C(=O)c2ccc(F)cc2)c1	33.6 µM
C/C(=N\NC(=O)c1cccc(S(=O)(=O)Nc2cccc(Cl)c2)c1)c1cccs1	3.3 µM
Cc1ccc(S(=O)(=O)Nc2ccc3c(c2)CCC3)cc1	6.54 µM

Structure (SMILES)	AC40
CCOc1ccc(NS(=O)(=O)c2cc(NC(=O)C3CC3)ccc2C)cc1Br	2.15 µM
CCOc1ccc(S(=O)(=O)Nc2cccc(Cl)c2)cc1	3.84 µM
Cc1ccc(NS(=O)(=O)c2ccc3c(c2)NC(=O)CO3)cc1C	6.29 µM
COc1ccc(-c2cc(C(=O)N(C)Cc3ccccc3F)c3ccccc3n2)cc1OC	14.7 µM
C[C@H](CO)N1C[C@H](C)[C@@H](CN(C)Cc2ccc(C(F)(F)F)cc2)Oc2ccc(N(C)C)cc2C1=O	0.891 µM
C[C@H](CO)N1C[C@H](C)[C@@H](CN(C)Cc2ccc(C(=O)Nc3ccccc3N)cc2)Oc2c(NS(=O)(=O)c3ccccc3)cccc2C1=O	20.2 µM
CCCCNS(=O)(=O)c1ccc(NC(=O)c2cccs2)cc1	1.09 µM
Cc1ccc(C(=O)C2Oc3ccccc3C3CC(c4ccc(C)cc4)=NN23)cc1 (stereo not drawn)	1.17 µM
Cc1ccc(S(=O)(=O)NCC[C@@H]2CC[C@@H](NC(=O)c3cnccn3)[C@H](CO)O2)cc1	10.2 µM
O=C(Nc1ccc(S(=O)(=O)NCc2ccccc2)cc1)Nc1ccc2c(c1)OCO2	2.08 µM
COc1ccc(NC(=O)C(OC(=O)Cn2cnc3c2c(=O)n(C)c(=O)n3C)c2ccccc2)cc1Cl (stereo not drawn)	7.87 µM
CC12CCC3C(CCC4(O)CC(O)CCC34C=O)C1(O)CCC2C1=CC(=O)OC1 (stereo not drawn)	2.4 µM
Cc1ccc(S(=O)(=O)Nc2ccccc2-c2ccccc2)cc1	12.4 µM
CCOc1cc(C)c(S(=O)(=O)NC2CCCCC2)cc1C	1.49 µM
S=C(NCc1cccs1)Nc1cccc(Cl)c1	3.93 µM
COC(=O)c1ccc(C)c(NS(=O)(=O)c2ccc(OC)c(OC)c2)c1	21.5 µM
O=S(=O)(Nc1ccccc1)c1ccc(-c2cnc(C3CC3)o2)cc1	8.92 µM
Cn1cc(CC(=O)Nc2cccc(C#N)c2)c2ccccc21	3.57 µM
CCCNC(=O)NC[C@@H]1[C@@H](c2ccc(C3=CCCC3)cc2)[C@H](CO)N1C(=O)CC	5.75 µM
O=S(=O)(Nc1ccc2ccccc2c1)c1ccccc1	12.5 µM
S=C(NCCc1ccccc1)Nc1ccc(Cl)cc1Cl	5.71 µM
O=S(=O)(NCCc1ccncc1)c1ccc(Br)cc1	1.15 µM
CCCCOCCCNC(=S)Nc1ccc(S(=O)(=O)N2CCOCC2)cc1	11 µM
Cc1cc(S(=O)(=O)Nc2cccc(O)c2)c(C)s1	31 µM
Cc1ccc(S(=O)(=O)N/N=C/c2ccc(OCC(=O)Nc3ccccc3Cl)cc2)cc1	5.89 µM
CCc1ccc(NS(=O)(=O)c2ccc(OC)c3ncccc23)cc1	0.362 µM

Structure (SMILES)	AC40
Cc1ccc(NC(=O)C(=O)c2c(-c3ccccc3)cc3ccccn23)cc1S(=O)(=O)N1CCOCC1	27.9 µM
Cc1cc(C)c(S(=O)(=O)NCCn2ccc3ccccc32)c(C)c1	1.93 µM
CCCC(=O)Nc1ccc2c(c1)C(=O)N(C)[C@H]1CC[C@@H](CC(=O)NCc3cccc(F)c3)O[C@H]1CO2	0.762 µM
COCC(=O)Nc1ccc(S(=O)(=O)NCCc2ccccc2)cc1	12.9 µM
COC(=O)C1CC23C=CCN4CCC5(c6ccccc6NC15C2C)C43 (stereo not drawn)	20.1 µM
Cc1cc(S(=O)(=O)Nc2ccc3cn[nH]c3c2)c(C)cc1Cl	2.11 µM
O=S(=O)(c1ccccc1)N(CC(O)COc1ccccc1)c1ccccc1 (stereo not drawn)	18.9 µM
CC(C)C(=O)Nc1ccc2c(c1)C(=O)N(C)[C@H]1CC[C@H](CC(=O)NCc3cccc(F)c3)O[C@H]1CO2	17.7 µM
Cc1cc(C)c(S(=O)(=O)NCCCn2ccnc2)cc1C	1.45 µM
CN(Cc1ccccc1)S(=O)(=O)c1ccc(NC(=S)NC(=O)C2CCCC2)cc1	9.75 µM
COc1ccc(N(C(=O)c2ccco2)S(=O)(=O)c2cc(Cl)c(Cl)cc2Cl)cc1	12.4 µM
O=S1(=O)CCC(NS(=O)(=O)c2ccc3ccccc3c2)C1 (stereo not drawn)	13.4 µM
CCC(C)(C)NC(=O)C(c1cccn1C)N(C(=O)Cn1nnc2ccccc21)c1ccc(OC)cc1OC (stereo not drawn)	21 µM
C[C@@H]1CN([C@@H](C)CO)C(=O)c2cccc(NC(=O)c3cnccn3)c2O[C@H]1CN(C)Cc1ccc(C(F)(F)F)cc1	19.2 µM
Nc1ncc(Br)cc1S(=O)(=O)NC1CCCCC1	2.19 µM
COc1ccc(C)cc1S(=O)(=O)Nc1cc2c3c(c1)CCC(=O)N3CCC2	1.86 µM
CCOc1cc(N2CCOCC2)c(OCC)cc1NS(=O)(=O)c1ccc(Cl)s1	32.9 µM
Cc1ccc(S(=O)(=O)Nc2ccc3ncccc3c2)cc1	11.6 µM
CC(C)CNS(=O)(=O)c1ccc2c(c1)OCCO2	5.9 µM
Cc1ccc(C)c(S(=O)(=O)NCC(c2ccc3c(c2)OCO3)N2CCOCC2)c1 (stereo not drawn)	1.81 µM
CCN(CC)S(=O)(=O)c1ccc(N2CCOCC2)c(NS(=O)(=O)c2ccc(C(C)C)cc2)c1	5.51 µM
Cc1ccc(SCCNC(=O)c2ccc(C)c(S(=O)(=O)Nc3cccc(C)c3)c2)cc1	3.74 µM
O=C(C[C@@H]1C[C@H]2c3cc(NS(=O)(=O)c4ccc(F)cc4)ccc3O[C@H]2[C@H](CO)O1)NCc1ccc(-c2ccccc2)cc1	5.24 µM
C[C@H](CO)N1C[C@H](C)[C@@H](CN(C)Cc2ccc(C(=O)Nc3ccccc3N)cc2)Oc2c(NC(=O)Nc3ccccc3)cccc2C1=O	23.5 µM
COc1ccc(C(=O)Nc2cccc(S(=O)(=O)NCc3ccco3)c2)cc1	0.822 µM
